Source: patent US6875762B2, “Tetracyclic azepinoindole compounds” (Pfizer, priority 1999, dated 2005)
Where a name gives a salt, the structure may show the parent alone. Read-outs that look alike come from different tables or passages of the source.

Target: T1, Human 5-HT2C receptor (Homo sapiens, UniProt P28335)
T1 construct: expressed in transfected cells; host or cells: HEK293 (HEK293-h5-HT2C-5 cell line), membranes
Assay: Test A: scintillation proximity radioligand binding assay with [3H]serotonin
Conditions: membranes of HEK293-h5-HT2C-5 cells, [3H]serotonin final 4 nM, IC50 converted by Cheng-Prusoff, Kd 7 nM
Protocol: The gene was inserted into expression vectors containing resistance genes as selectable markers. […] The receptor was used under license from D. J. Julius at Columbia University.
The HEK293-h5-HT2C-5 cell line was seeded from frozen stocks into DMEM high glucose salts medium supplemented with sodium pyruvate, Penicillin/Streptomycin solution, G418 (0.25 g/L), hygromycin B ([…]), and Fetal Bovine Serum (3%). […] At approximately 90% confluency, the cells were rinsed with ice-cold PBS and scraped from the NUNC plates using 3M squeegees. The cells were broken with a VirTishear homogenizer. The remaining particulate matter was removed by low-speed centrifugation. Finally, the membranes were concentrated by high-speed centrifugation and resuspended in binding buffer, 50 mM TRIS, 5 mM MgCl2, pH 7.4. The preparation was held in a water-ice slurry while a pilot binding assay was performed (1.5 hours), and then quick-frozen in aliquots appropriate for 1 tube for each 96-well assay plate.
Assays were performed in Wallac microtitre PET plates designed for the Wallac microBeta LSC. Binding reactions contained test compound (11 μl), [^3H]serotonin (124 Ci/mmol, 11 μl for final 4 nM) and bead-membrane mixture (178 μl). The test compound was replaced by water to determine total binding, or by mianserin (5 μM) to define non-specific binding.
The bead-membrane mixture was made by adding 100 mg Wheatgerm Agglutinin SPA beads (Amersham) and membrane preparation (2-5 mg protein) in a total of 8 ml binding buffer for each 96-well assay plate. The mixture was stirred gently for 30 minutes at room temperature, followed by centrifugation (1000 RPM, Beckman Accuspin FR) for 10 minutes. The supernatant, containing excess membrane, was aspirated, and the beads resuspended in 18.5 ml binding buffer for each assay plate. The washed bead-membrane mix was then poured into a reagent reservoir. The mixture was pipetted into the assay plate with a multi-channel pipetter, maintaining constant stirring during pipetting.
After the reactions were complete, the plates were sealed with plastic tape and placed on a gyrotory shaker (150 rpm) for 5 minutes. After shaking, room temperature incubation continued for 2 hours. Finally, the plates were loaded into counting cassettes and counted with the Wallac microBeta LSC.
Eleven half-log serial dilutions of test compounds were made in water using the PE/Cetus Pro/Pette pipetter. These dilutions were distributed to assay plates using the same instrument, followed by radioligand and the bead-membrane mixture prepared as described above. The specifically bound cpm obtained were fit to a one-site binding model using GraphPad Prism ver. 2.0.

[1] = read-out: Receptor binding 5HT2c Ki

T1 sequence (P28335 33-458): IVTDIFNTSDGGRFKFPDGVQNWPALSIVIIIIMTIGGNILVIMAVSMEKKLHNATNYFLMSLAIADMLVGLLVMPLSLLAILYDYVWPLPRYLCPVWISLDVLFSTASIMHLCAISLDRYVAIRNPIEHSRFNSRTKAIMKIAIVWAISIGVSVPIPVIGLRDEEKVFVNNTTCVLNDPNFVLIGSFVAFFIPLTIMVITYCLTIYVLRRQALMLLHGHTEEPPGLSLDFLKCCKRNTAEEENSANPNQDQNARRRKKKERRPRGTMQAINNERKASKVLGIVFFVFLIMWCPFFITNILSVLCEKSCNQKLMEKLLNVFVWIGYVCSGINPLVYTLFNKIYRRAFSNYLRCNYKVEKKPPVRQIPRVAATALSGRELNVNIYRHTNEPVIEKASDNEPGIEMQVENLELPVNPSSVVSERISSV

Row | SMILES | Ki [1] [nM] | Ki (Receptor binding 5HT2c Ki (nM)) [nM]
1 | CC1CCc2cccc3c4c(n1c23)CCNCC4 (single isomer, unassigned; (+)) [Example 8, (+)-6-methyl-5,6,9,10,11,12-hexahydro-4H,8H-azepino[4′,5′:4,5]pyrrolo[3,2,1-ij]quinoline hydrochloride] | 51 | –
2 | CC1Cc2cccc3c4c(n(c23)C1)CCNCC4 (single isomer, unassigned; (+)) [Example 10, (+)-5-methyl-5,6,9,10,11,12-hexahydro-4H,8H-azepino[4′,5′:4,5]pyrrolo[3,2,1-ij]quinoline hydrochloride] | 70 | –
3 | CC1CCn2c3c(c4cccc1c42)CCNCC3 (single isomer, unassigned; (+)) [Example 12, (+)-4-methyl-5,6,9,10,11,12-hexahydro-4H,8H-azepino[4′,5′:4,5]pyrrolo[3,2,1-ij]quinoline hydrochloride] | – | 41
4 | CC1CCc2cccc3c4c(n1c23)CCNCC4 (single isomer, unassigned; (-)) [Example 9, (−)-6-methyl-5,6,9,10,11,12-hexahydro-4H,8H-azepino[4′,5′:4,5]pyrrolo[3,2,1-ij]quinoline hydrochloride] | 26 | –
5 | CC1Cc2cccc3c4c(n(c23)C1)CCNCC4 (single isomer, unassigned; (-)) [Example 11, (−)-5-methyl-5,6,9,10,11,12-hexahydro-4H,8H-azepino[4′,5′:4,5]pyrrolo[3,2,1-ij]quinoline hydrochloride] | 96 | –
6 | CC1CCn2c3c(c4cccc1c42)CCNCC3 (single isomer, unassigned; (-)) [Example 13, (−)-4-methyl-5,6,9,10,11,12-hexahydro-4H,8H-azepino[4′,5′:4,5]pyrrolo[3,2,1-ij]quinoline hydrochloride] | – | 45
7 | c1cc2c3c(c1)c1c(n3CCC2)CCNCC1 [Example 1, 5,6,9,10,11,12-hexahydro-4H,8H-azepino[4′,5′:4,5]pyrrolo[3,2,1-ij]quinoline hydrochloride] | 13 | –
8 | Cc1cc2c3c(c1)c1c(n3CCC2)CCNCC1 [Example 2, 2-methyl-5,6,9,10,11,12-hexahydro-4H,8H-azepino[4′,5′:4,5]pyrrolo[3,2,1-ij]quinoline hydrochloride] | 80 | –
9 | COc1ccc2c3c1c1c(n3CCC2)CCNCC1 [Example 3, 1-methoxy-5,6,9,10,11,12-hexahydro-4H,8H-azepino[4′,5′:4,5]pyrrolo[3,2,1-ij]quinoline hydrochloride] | – | 27
10 | Fc1cc2c3c(c1)c1c(n3CCC2)CCNCC1 [Example 4, 2-fluoro-5,6,9,10,11,12-hexahydro-4H,8H-azepino[4′,5′:4,5]pyrrolo[3,2,1-ij]quinoline hydrochloride] | 83 | –
11 | CC1CCc2cccc3c4c(n1c23)CCNCC4 (stereo not drawn) [Example 5, 6-methyl-5,6,9,10,11,12-hexahydro-4H,8H-azepino[4′,5′:4,5]pyrrolo[3,2,1-ij]quinoline hydrochloride] | 33 | –
12 | CC1Cc2cccc3c4c(n(c23)C1)CCNCC4 (stereo not drawn) [Example 6, 5-methyl-5,6,9,10,11,12-hexahydro-4H,8H-azepino[4′,5′:4,5]pyrrolo[3,2,1-ij]quinoline hydrochloride] | 44 | –
13 | CC1CCn2c3c(c4cccc1c42)CCNCC3 (stereo not drawn) [Example 7, 4-methyl-5,6,9,10,11,12-hexahydro-4H,8H-azepino[4′,5′:4,5]pyrrolo[3,2,1-ij]quinoline hydrochloride] | – | 77
14 | c1cc2c3c(c1)c1c(n3CC2)CCNCC1 [Example 14, 4,5,8,9,10,11-hexahydro-7H-azepino[4,5-b]pyrrolo[3,2,1-hi]indole hydrochloride] | – | 28
15 | Fc1cc2c3c(c1)c1c(n3CC2)CCNCC1 [Example 15, 2-fluoro-4,5,8,9,10,11-hexahydro-7H-azepino[4,5-b]pyrrolo[3,2,1-hi]indole hydrochloride] | – | 24
16 | COc1cc2c3c(c1)c1c(n3CC2)CCNCC1 [Example 16, 2-methoxy-4,5,8,9,10,11-hexahydro-7H-azepino[4,5-b]pyrrolo[3,2,1-hi]indole hydrochloride] | – | 361
17 | CC1Cc2cccc3c4c(n1c23)CCNCC4 (stereo not drawn) [Example 17, 5-methyl-4,5,8,9,10,11-hexahydro-7H-azepino[4,5-b]pyrrolo[3,2,1-hi]indole hydrochloride] | – | 65
18 | CC1c2cccc3c4c(n(c23)C1C)CCNCC4 (stereo not drawn) [Example 18, 4,5-dimethyl-4,5,8,9,10,11-hexahydro-7H-azepino[4,5-b]pyrrolo[3,2,1-hi]indole hydrochloride] | 52 | –
19 | c1cc2c3c(c1)c1c(n3C3CCCCC23)CCNCC1 (stereo not drawn) [Example 19, 2,3,4,5,8b,9,10,11,12,12a-decahydro-1H-azepino[4′,5′:4,5]pyrrolo[3,2,1-jk]carbazole hydrochloride] | 144 | –
20 | Cc1ccc2c3c1c1c(n3CCO2)CCNCC1 [Example 20, 6-methyl-1,2,8,9,10,11-hexahydro-7H-azepino[4,5-b][1,4]oxazino[2,3,4-hi]indole hydrochloride] | 3.8 | –
21 | c1cc2c3c(c1)c1c(n3CCO2)CCNCC1 [Example 21, 1,2,8,9,10,11-hexahydro-7H-azepino[4,5-b][1,4]oxazino[2,3,4-hi]indole hydrochloride] | 16 | –
22 | Clc1ccc2c3c1c1c(n3CCO2)CCNCC1 [Example 22, 6-chloro-1,2,8,9,10,11-hexahydro-7H-azepino[4,5-b][1,4]oxazino[2,3,4-hi]indole hydrochloride] | 2.3 | –
23 | Fc1cc2c3c(c1)c1c(n3CCO2)CCNCC1 [Example 23, 5-fluoro-1,2,8,9,10,11-hexahydro-7H-azepino[4,5-b][1,4]oxazino[2,3,4-hi]indole hydrochloride] | 13 | –
24 | Cc1cc2c3c(c1)c1c(n3CCO2)CCNCC1 [Example 24, 5-methyl-1,2,8,9,10,11-hexahydro-7H-azepino[4,5-b][1,4]oxazino[2,3,4-hi]indole hydrochloride] | – | 29
25 | Fc1ccc2c3c1c1c(n3CCO2)CCNCC1 [Example 25, 6-fluoro-1,2,8,9,10,11-hexahydro-7H-azepino[4,5-b][1,4]oxazino[2,3,4-hi]indole hydrochloride] | 8 | –
26 | CC1Cn2c3c(c4cccc(c42)O1)CCNCC3 (stereo not drawn) [Example 26, 2-methyl-1,2,8,9,10,11-hexahydro-7H-azepino[4,5-b][1,4]oxazino[2,3,4-hi]indole hydrochloride] | 29 | –
27 | c1cc2c3c(c1)c1c(n3CCS2)CCNCC1 [Example 27, 1,2,8,9,10,11-hexahydro-7H-azepino[4,5-b][1,4]thiazino[2,3,4-hi]indole hydrochloride] | 5.1 | –
